Measurements: patent publication US8242118B2, “Arylsulfonamide derivatives for use as CCR3 antagonists in the treatment of inflammatory and immunological disorders” (Axikin Pharmaceuticals Inc., priority 2001, dated 2012)

Columns and labels:
Human CCR3 = target: T1, Human CCR3 (Homo sapiens, UniProt P51677); experiment: Calcium mobilization assay, eotaxin-stimulated; assay type: cell-based; conditions: human CCR3-transformed K562 cells, 10 nM eotaxin; compounds of about 40 to 90% purity; read-out: Activity grade Ca2+ (IC50 class)
T1 construct: The cloned CCR3 cDNA was constructed with pcDNA3 vector and transfected into a IC562 cell line; expressed in transfected cells
T1 sequence (P51677 1-355): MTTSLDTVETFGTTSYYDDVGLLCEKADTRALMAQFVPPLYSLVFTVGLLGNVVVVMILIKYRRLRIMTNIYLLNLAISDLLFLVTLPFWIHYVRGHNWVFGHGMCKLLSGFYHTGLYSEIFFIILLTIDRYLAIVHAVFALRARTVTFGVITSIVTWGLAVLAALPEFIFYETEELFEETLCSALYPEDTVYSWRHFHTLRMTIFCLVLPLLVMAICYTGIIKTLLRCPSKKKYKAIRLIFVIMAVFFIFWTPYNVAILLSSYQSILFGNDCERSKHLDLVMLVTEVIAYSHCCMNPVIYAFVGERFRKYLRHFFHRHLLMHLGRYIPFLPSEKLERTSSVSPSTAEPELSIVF
Method: • Human CCR3-transformed K562 cells were used. The cloned CCR3 cDNA was constructed with pcDNA3 vector and transfected into a IC562 cell line. The human CCR3-transformed K562 cells were maintained in RPMI-1640 (Cat.#22400-089, Life Technologies) supplemented with 10% FCS (Cat.#A-1115-L, Hyclone), 55 μM 2-mercaptoethanol (Cat.#21985-023, Life Technologies), 1 mM sodium pyruvate (Cat.#11360-070, Life Technologies), 100 units/ml of penicillin G and 100 μg/ml of streptomycin (Cat.#15140-122, Life Technologies), and 0.4 mg/ml of Geneticin (Cat.#10131-035, Life Technologies)(hereinafter called “culture medium”). Before the receptor binding assay, cells were pretreated with 5 mM sodium butyrate (Cat.#193-01522, Wako)-containing the culture medium (2×10^5 cells/ml) for 20-24 hours to increase the expression of CCR3. (2) Receptor Binding Assay (RBA) • Butyrate-pretreated cells, suspended in binding buffer (25 mM HEPES pH 7.6, 1 mM CaCl2, 5 mM MgCl2, 0.5% BSA, 0.1% NaN3) at a cell density of 2×10^6 cells/ml, were added into 60 μl/well in the 96-well round bottom polypropylene plate (Cat.#3365, Costar). Compounds, diluted with the binding buffer (4-times higher concentration of the final concentration), were added into 30 μl/well in the polypropylene plate. [^125I]-labeled human eotaxin (Cat.#IM290, Amersham Pharmacia Biotech), diluted with the binding buffer at the concentration of 0.4 nM (final concentration; 0.1 nM), was added into 30 μl/well in the polypropylene plate. Total 120 μl/well of binding reaction mixture (60 μl/well of cell suspension, 30 μl/well of compound solution, and 30 μl/well of [^125I]-labeled eotaxin) were incubated in the polypropylene plate for 1 hour at room temperature after the incubation, 100 μl/well of the reaction mixture was transferred to a filtration plate (Cat.#MAFB-N0B, Millipore), and washed with the washing buffer (25 mM HEPES pH 7.6, 1 mM CaCl2, 5 mM MgCl2, 0.5% BSA, 0.1% NaN3, 0.5 M NaCl) twice. The 96-well filtration plate was pretreated with 100 μl/well of 0.5% polyethylenimine (Cat.#P-3143, Sigma) for 2-4 hours at room temperature and washed with the washing buffer twice before use. The non-specific binding was determined by parallel incubation in the presence of 500 nM of non-labeled eotaxin (Cat.#23209, Genzyme Techne). The radioactivities remained on the filter were measured by liquid scintillation counter (TopCount™, Packard) after an addition of 45 μl/well of scintillant (Microscint20, Cat.#6013621, Packard). The inhibition percent at each concentration of compound was calculated, and IC50 values were determined from the inhibition curve. [Determination of IC50 Values of Compounds in Calcium Mobilization Assay] (IC50 Ca2+) (1) Cell • Human CCR3-transformed K562 cells were used. The human CCR3-transformed K562 cells were maintained in RPMI-1640 supplemented with 10% FCS, 55 μM 2-mercaptoethanol (Cat.#21985-023, Life Technologies), 1 mM sodium pyruvate, 100 units/ml of penicillin G and 100 μg/ml of streptomycin and 0.4 mg/ml of Geneticin. Before the calcium mobilization assay, cells were pretreated with 5 mM sodium butyrate-containing the culture medium (2×10^5 cells/ml) for 20-24 hours to increase the expression of CCR3. (2) Calcium Mobilization Assay • Butyrate-pretreated cells were loaded with Fluo-3AM (Cat.#F-1242, Molecular Probes) in loading buffer (Hanks' solution Cat.#05906 Nissui, 20 mM HEPES pH 7.6, 0.1% BSA, 1 mM probenecid Cat.#P-8761 Sigma, 1 μM Fluo-3AM, 0.01% pluronic F-127 Cat.#P-6866 Molecular Probes) at a cell density of 1×10^7 cells/ml. Then, cells were washed with calcium assay buffer (Hanks' solution Cat.#05906 Nissui, 20 mM HEPES pH 7.6, 0.1% BSA, 1 mM Probenecid Cat.#P-8761 Sigma). The cell suspension (3.3×10^6 cells/ml) was added into 60 μl/well in the 96-well clear bottom black plate (Cat.#3904, Costar). Compounds, diluted (5-times concentration of the final concentration) with the calcium assay buffer, were added into 20 μl/well in the plate 10 minutes before assay. […]

## Cc1cccc(Sc2ccc([N+](=O)[O-])cc2S(=O)(=O)N2CCNCC2)c1.Cl [Example 2-16]
Human CCR3
  IC50: < 1000 nM
other
  melting point: 229 to 231 °C

## CCN(CC)CCN1CCN(S(=O)(=O)c2cc([N+](=O)[O-])ccc2Oc2cc(Cl)cc(Cl)c2)CC1 [Example 4-30]
Human CCR3
  IC50: < 1000 nM
other
  melting point: 98 to 99 °C

## Cc1cc(C)cc(Sc2ccc([N+](=O)[O-])cc2S(=O)(=O)N2CCN(CC3CCCO3)CC2)c1 (centres unmarked) [Example 4-28]
Human CCR3
  IC50: < 1000 nM
other
  melting point: 143 to 144 °C

## Cc1cc(C)cc(Oc2cccc(F)c2S(=O)(=O)N2CCNCC2)c1.Cl [Example 1-58]
Human CCR3
  IC50: < 1000 nM
other
  melting point: 204 °C

## NCC1CCN(S(=O)(=O)c2cc([N+](=O)[O-])ccc2Oc2cc(Cl)cc(Cl)c2)CC1 [Example 1-97]
Human CCR3
  IC50: < 1000 nM
other
  melting point: 148 to 151 °C

## CN(C)CCN1CCN(S(=O)(=O)c2cc([N+](=O)[O-])ccc2Oc2cc(Cl)cc(Cl)c2)CC1 [Example 4-31]
Human CCR3
  IC50: < 1000 nM
other
  melting point: 138 to 140 °C

## Cc1ccc([N+](=O)[O-])c(Oc2ccc([N+](=O)[O-])cc2S(=O)(=O)N2CCNCC2)c1.Cl [Example 1-75]
Human CCR3
  IC50: < 1000 nM
other
  melting point: 215 °C

## CN1CCC(N2CCN(S(=O)(=O)c3cc([N+](=O)[O-])ccc3Oc3cc(Cl)cc(Cl)c3)CC2)CC1 [Example 4-32]
Human CCR3
  IC50: < 1000 nM
other
  melting point: 167 to 169 °C

## Cc1cc(C)cc(Oc2ccc([N+](=O)[O-])cc2S(=O)(=O)N2C(C)CNCC2C)c1.Cl (centres unmarked) [Example 1-94]
Human CCR3
  IC50: < 1000 nM
other
  melting point: > 300 °C

## Cc1cc(C)c(Sc2ccc([N+](=O)[O-])cc2S(=O)(=O)N2CCNCC2)c(C)c1.Cl [Example 2-15]
Human CCR3
  IC50: 1000 to 10000 nM
other
  melting point: 274 °C

## NCCNS(=O)(=O)c1cc([N+](=O)[O-])ccc1Sc1cc(Cl)cc(Cl)c1 [Example 2-5]
Human CCR3
  IC50: < 1000 nM
other
  melting point: 189 °C

## CN(c1cccnc1)S(=O)(=O)c1cc(C#N)ccc1Oc1cc(Cl)cc(Cl)c1.Cl [Example 13-10]
Human CCR3
  IC50: < 1000 nM
other
  melting point: 104 °C

## Cl.O=[N+]([O-])c1ccc(Sc2cc(Cl)cc(Cl)c2)c(S(=O)(=O)N2CCNCC2)c1 [Example 2-18]
Human CCR3
  IC50: < 1000 nM
other
  melting point: 262 to 264 °C

## CCOC(=O)CCN1CCN(S(=O)(=O)c2cc([N+](=O)[O-])ccc2Sc2cc(Cl)cc(Cl)c2)CC1 [Example 2-6]
Human CCR3
  IC50: < 1000 nM
other
  melting point: 156 to 158 °C

## Cl.O=[N+]([O-])c1ccc(Sc2cc(C(F)(F)F)cc(C(F)(F)F)c2)c(S(=O)(=O)N2CCNCC2)c1 [Example 2-20]
Human CCR3
  IC50: < 1000 nM
other
  melting point: 230 to 231 °C

## CCOC(=O)CCN1CCN(S(=O)(=O)c2cc([N+](=O)[O-])ccc2Oc2cc(Cl)cc(Cl)c2)CC1 [Example 4-37]
Human CCR3
  IC50: < 1000 nM
other
  melting point: 160 to 162 °C

## O=[N+]([O-])c1ccc(Sc2cc(Cl)cc(Cl)c2)c(S(=O)(=O)N2CCN(CC3CCCO3)CC2)c1 (centres unmarked) [Example 2-2]
Human CCR3
  IC50: < 1000 nM
other
  melting point: 147 to 148 °C

## Cl.O=[N+]([O-])c1ccc(Oc2cccc(-c3ccccc3)c2)c(S(=O)(=O)N2CCNCC2)c1 [Example 1-68]
Human CCR3
  IC50: < 1000 nM
other
  melting point: 99 °C

## COc1cc(Oc2cc(Cl)cc(Cl)c2)c(S(=O)(=O)N2CCNCC2)cc1[N+](=O)[O-].Cl [Example 1-50]
Human CCR3
  IC50: < 1000 nM
other
  melting point: 181 °C

## Cc1cc(O)cc(Oc2ccc([N+](=O)[O-])cc2S(=O)(=O)N2CCNCC2)c1.Cl [Example 1-71]
Human CCR3
  IC50: < 1000 nM
other
  melting point: 182 °C

## O=C(O)CCN1CCN(S(=O)(=O)c2cc([N+](=O)[O-])ccc2Sc2cc(Cl)cc(Cl)c2)CC1 [Example 2-10]
Human CCR3
  IC50: < 1000 nM
other
  melting point: 209 to 211 °C

## Cl.Cl.O=[N+]([O-])c1ccc(Oc2cncc(Cl)c2)c(S(=O)(=O)N2CCNCC2)c1 [Example 1-55]
Human CCR3
  IC50: < 1000 nM
other
  melting point: 231 °C

## CN(C)CC(C)(C)CNS(=O)(=O)c1cc([N+](=O)[O-])ccc1Oc1cc(Cl)cc(Cl)c1 [Example 4-35]
Human CCR3
  IC50: < 1000 nM
other
  melting point: 134 °C

## Cl.O=[N+]([O-])c1ccc(Sc2cccc(F)c2)c(S(=O)(=O)N2CCNCC2)c1 [Example 2-19]
Human CCR3
  IC50: < 1000 nM
other
  melting point: 236 to 238 °C

## COCCCN1CCN(S(=O)(=O)c2cc([N+](=O)[O-])ccc2Sc2cc(Cl)cc(Cl)c2)CC1 [Example 2-9]
Human CCR3
  IC50: < 1000 nM
other
  melting point: 131 to 133 °C

## CSCCCN1CCN(S(=O)(=O)c2cc(C#N)ccc2Sc2cc(Cl)cc(Cl)c2)CC1 [Example 17-2]
Human CCR3
  IC50: < 1000 nM
other
  melting point: 124 °C

## NCC1CCN(S(=O)(=O)c2cc([N+](=O)[O-])ccc2Sc2cc(Cl)cc(Cl)c2)CC1 [Example 2-7]
Human CCR3
  IC50: < 1000 nM
other
  melting point: 147 to 149 °C

## Cl.O=[N+]([O-])c1ccc(Sc2cc(Cl)cc(Cl)c2)c(S(=O)(=O)NCC2CCNCC2)c1 [Example 2-8]
Human CCR3
  IC50: < 1000 nM
other
  melting point: 205 to 207 °C

## O=C(O)CCN1CCN(S(=O)(=O)c2cc([N+](=O)[O-])ccc2Oc2cc(Cl)cc(Cl)c2)CC1 [Example 1-98]
Human CCR3
  IC50: < 1000 nM
other
  melting point: 200 to 201 °C

## O=[N+]([O-])c1ccc(Oc2cc(Cl)cc(Cl)c2)c(S(=O)(=O)NC2CCNCC2)c1 [Example 1-78]
Human CCR3
  IC50: < 1000 nM
other
  melting point: > 300 °C

## CN(C)CC(C)(C)CN(C)S(=O)(=O)c1cc([N+](=O)[O-])ccc1Sc1cc(Cl)cc(Cl)c1 [Example 26-3]
Human CCR3
  IC50: < 1000 nM
other
  melting point: 144 to 145 °C

## Cl.O=S(=O)(c1c(F)cccc1Oc1cc(Cl)cc(Cl)c1)N1CCNCC1 [Example 1-59]
Human CCR3
  IC50: < 1000 nM
other
  melting point: 306 °C

## Cl.Nc1cccc(Oc2ccc([N+](=O)[O-])cc2S(=O)(=O)N2CCNCC2)c1 [Example 1-67]
Human CCR3
  IC50: < 1000 nM
other
  melting point: 248 °C

## Cl.O=[N+]([O-])c1ccc(Oc2ccc3c(c2)CCCC3)c(S(=O)(=O)N2CCNCC2)c1 [Example 1-72]
Human CCR3
  IC50: < 1000 nM
other
  melting point: 168 °C

## Cc1cc(C)cc(Oc2cc(C)c(Cl)cc2S(=O)(=O)N2CCNCC2)c1.Cl [Example 5-8]
Human CCR3
  IC50: < 1000 nM
other
  melting point: 148 °C

## Cc1cc(C)cc(Oc2cc(C)ccc2S(=O)(=O)N2CCNCC2)c1.Cl [Example 1-52]
Human CCR3
  IC50: < 1000 nM
other
  melting point: 136 °C

## Cl.O=[N+]([O-])c1ccc(Sc2cccc(Cl)c2)c(S(=O)(=O)N2CCNCC2)c1 [Example 2-17]
Human CCR3
  IC50: < 1000 nM
other
  melting point: 235 to 237 °C
